Measurements as given in PubChem BioAssay AID720632 (Broad Institute, 2013).
The source made the active and inactive calls. The rule behind the calls is not given here.

Target: Caspase-6 (Homo sapiens) (UniProt P55212)
Experiment: human caspase-6 inhibitors, dose response, biochemical, VEID-R110 fluorescence, cherry-pick (AID 720632)
Conditions: caspase-6, VEID-R110 fluorogenic substrate; at 26 µM (top of the series)

Chain of Caspase-6 (Homo sapiens) (P55212 24-179 limits assumed): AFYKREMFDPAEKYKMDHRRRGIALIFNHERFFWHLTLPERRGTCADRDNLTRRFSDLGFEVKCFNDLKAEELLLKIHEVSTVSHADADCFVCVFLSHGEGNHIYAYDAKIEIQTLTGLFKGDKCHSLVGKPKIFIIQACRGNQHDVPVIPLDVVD
Chain of Caspase-6 (Homo sapiens) (P55212 194-293 limits assumed): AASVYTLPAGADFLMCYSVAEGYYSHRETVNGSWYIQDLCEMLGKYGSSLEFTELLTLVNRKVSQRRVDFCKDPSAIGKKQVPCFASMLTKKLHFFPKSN

Structure (SMILES) | activity change, negative = inhibition
CN1N=C(C(C)(C)C)CSC1=Nc1ccccc1 | inactive
COCC(=O)Nc1ccc2c(c1)OC[C@@H](C)N(CC1CC1)C[C@@H](C)[C@H](OC)CN(C)C2=O | inactive
Nc1ccccc1Sc1ccc(C(=O)c2ccccc2C(=O)O)cc1[N+](=O)[O-] | inactive
CO[C@@H]1CN(C)C(=O)c2ccc(NC(=O)C3CC3)cc2OC[C@H](C)N(CC2CCOCC2)C[C@H]1C | inactive
CO[C@@H]1CN(C)C(=O)c2ccc(NC(=O)C3CC3)cc2OC[C@@H](C)N(Cc2ccccc2)C[C@@H]1C | inactive
CN(C)CCNC(=O)c1cccc(S(=O)(=O)Nc2ccccc2F)c1 | inactive
Cc1cc2c(NC(=O)Nc3ccc(F)cc3)cccc2nn1 | inactive
CCC(=O)Nc1ccc2c(c1)OC[C@H](C)N(C(=O)CC)C[C@@H](C)[C@@H](OC)CN(C)C2=O | inactive
O=C(Cc1ccc([N+](=O)[O-])cc1)c1c(O)cc(O)cc1O | inactive
COc1nc(C)c2cc(C)oc2n1 | inactive
COc1ccc(/C(C)=N/N2CCCCC2)c(O)c1 | inactive
O=C1c2ccccc2[C@@H]2C[C@@H](O)[C@H](Nc3cccc4ccccc34)CCN12 | inactive
CCC(CC)COC(=O)C1=C(C)NC(=O)NC1c1cc(OC)ccc1OC (stereo unspecified) | inactive
C/C(=N\NC(=O)c1ccccc1O)C1CC1 | inactive
COC(=O)c1ccc(C(=O)OC)c(NC(=O)CN(c2ccc3c(c2)OCO3)S(C)(=O)=O)c1 | inactive
Cc1csc(=O)n1CC(=O)OCC(=O)NCc1ccc(F)cc1 | inactive
O=C(O)c1ccc(Cn2cc(/C=C\[N+](=O)[O-])c3ccccc32)o1 | inactive
CCOc1ccc(N2CC(C(=O)NCC(=O)Nc3ccc(F)c(F)c3F)CC2=O)cc1 (stereo unspecified) | inactive
CO[C@H]1CN(C)C(=O)c2ccc(NC(=O)C3CC3)cc2OC[C@@H](C)N(Cc2ccccc2)C[C@@H]1C | inactive
Cc1ccc(-c2[nH]c3cc(C(=O)NCCCn4ccnc4)ccc3c(=O)c2O)cc1 | inactive
CCOc1ncccc1C(=O)OC(C)C(=O)Nc1ccc(N2CCOCC2)cc1 (stereo unspecified) | inactive
CN1CC2([N+](=O)[O-])CC=C(OCCO)C([N+](=O)[O-])(C1)C2 (stereo unspecified) | inactive

Structure (SMILES) | activity change, negative = inhibition
COc1ccc(/C=N/NC(=O)c2ccccc2O)cc1CN1CCOCC1 | inactive
Cc1cc(C)cc(N(CC(=O)N2CCCCCC2)S(C)(=O)=O)c1 | inactive
COc1cc2ccccc2cc1C(=O)N(CCN(C)C)c1nc2c(F)cc(F)cc2s1 | inactive
C=CCNC(=O)COc1ccccc1C#N | inactive
O=C(N/N=C/c1ccc([N+](=O)[O-])o1)c1ccccc1NS(=O)(=O)c1cccs1 | inactive
CCCC(=O)Nc1ccc2c(c1)OC[C@H](C)NC[C@@H](C)[C@@H](OC)CN(C)C2=O | inactive
CO[C@@H]1CN(C)C(=O)c2ccc(NC(=O)C3CC3)cc2OC[C@@H](C)N(Cc2ccccc2)C[C@H]1C | inactive
CCCC(=O)Nc1ccc2c(c1)OC[C@@H](C)NC[C@H](C)[C@H](OC)CN(C)C2=O | inactive
COc1ccc(N(C)S(=O)(=O)c2cccc(C(=O)NCC(c3cccs3)N(C)C)c2)cc1 (stereo unspecified) | inactive
COc1ccc(S(=O)(=O)n2cnc3ccccc32)cc1OC | inactive
CC1CCN(C(=O)Cn2cc(C(F)(F)F)ccc2=O)c2ccccc2S1 (stereo unspecified) | inactive
COc1ccc(N2CCN(C(=O)CCNS(=O)(=O)c3ccc(C)cc3)CC2)cc1 | inactive
COc1cccc(NC(=O)Cn2c(=O)n(C)c(=O)c3sc4c(c32)COC(C)(C)C4)c1 | inactive
O=C(NCC1COc2ccccc2O1)c1ccc(F)c(S(=O)(=O)N2CCOCC2)c1 (stereo unspecified) | inactive
CCOc1ccc(S(=O)(=O)NCCC(=O)NCC2(N3CCCCC3)CCCCC2)cc1 | inactive
CCC(=O)Nc1ccc2c(c1)OC[C@@H](C)N(C(=O)CC)C[C@H](C)[C@H](OC)CN(C)C2=O | inactive
COCC(=O)Nc1ccc2c(c1)OC[C@H](C)N(CC1CC1)C[C@H](C)[C@H](OC)CN(C)C2=O | inactive
CN1CCN(C(=O)c2cc(Cl)cc(Cl)c2)CC1 | inactive
CO[C@H]1CN(C)C(=O)c2ccc(NC(=O)C3CC3)cc2OC[C@H](C)N(Cc2ccccc2)C[C@H]1C | inactive
CC(C)CNC(=O)C1(C)CCCN1C(=O)Cc1cccc2ccccc12 (stereo unspecified) | inactive
Oc1ccc(/C=N/Nc2ccnc3cc(Cl)ccc23)c(O)c1 | inactive
COc1ccc(OC)c(NC(=O)Nc2ccc(O)c3ccccc23)c1 | inactive

Structure (SMILES) | activity change, negative = inhibition
O=C(COC(=O)Cc1ccc(S(=O)(=O)N2CCOCC2)s1)Nc1ccc(F)cc1F | inactive
CO[C@H]1CN(C)C(=O)c2ccc(NC(=O)C3CC3)cc2OC[C@H](C)N(Cc2cccc(F)c2)C[C@H]1C | inactive
O=C(O)C[C@H]1CC[C@H]2[C@@H](COC[C@H](O)CN2S(=O)(=O)c2ccc(Oc3ccccc3)cc2)O1 | inactive
COc1cccc(N2C(=O)NC(=O)/C(=C/c3ccc([N+](=O)[O-])s3)C2=O)c1 | inactive
COc1cc(CNC(C)c2ccccc2)c(Br)cc1OCC(N)=O (stereo unspecified) | inactive
CCOc1cc2c(cc1OC)C(c1cccc([N+](=O)[O-])c1)NCC2 (stereo unspecified) | inactive
CC(=O)Nc1ccc(NC(=O)COC(=O)c2ccc([N+](=O)[O-])o2)cc1 | inactive
Oc1cc(Nc2cccnc2)cc2cccnc12 | inactive
O=C(COc1ccc(S(=O)(=O)NC2CCCCC2)cc1Cl)NCc1ccc2c(c1)OCO2 | inactive
O=C(OCC(=O)N1CCN(c2ccccc2)CC1)c1ccc([N+](=O)[O-])s1 | inactive
COc1cccc(NC(=O)CC(=O)c2ccc([N+](=O)[O-])cc2)c1 | inactive
CCOC(=O)N1CCN(C(=O)Cc2ccccc2[N+](=O)[O-])CC1 | inactive
O=C(Nc1ccccc1)c1nc[nH]c1C(=O)Nc1ccccc1F | inactive
C/C(=N/NS(=O)(=O)c1ccc(Cl)cc1)c1cccc(NC(=O)c2ccncc2)c1 | inactive
CC1(C)C(=O)Nc2ccccc2N1C(=O)COC(=O)c1ccc([N+](=O)[O-])o1 | inactive
C#CCOc1ccc(CNC[C@H]2O[C@@H](n3ccc(N)nc3=O)[C@H](O)[C@@H]2O)cc1 | inactive
COc1ccc2oc(C(=O)N3CCN(c4ncccn4)CC3)c(C)c2c1 | inactive
C[C@@H]1CN([C@H](C)CO)C(=O)c2cc(Br)cnc2O[C@H]1CN(C)CC1CCCC1 | inactive
O=C(O)c1cc([N+](=O)[O-])cc([N+](=O)[O-])c1N1CCN(c2cccc(C(F)(F)F)c2)CC1 | inactive
COc1ccc(C(=O)Nc2ccc3ccccc3c2)c(OC)c1 | inactive
Cc1ccc(C)c(N2CCN(C(=O)CCCn3c(=S)[nH]c4cc5c(cc4c3=O)OCO5)CC2)c1 | inactive
CCN(CC)c1nc(N)c2c(N)nc(OC)cc2c1C#N | inactive

Structure (SMILES) | activity change, negative = inhibition
O=C(ONC(=O)C1CCCCC1C(=O)NOC(=O)c1ccccc1)c1ccccc1 (stereo unspecified) | inactive
COC(=O)[C@H]1[C@H](CO)[C@H]2Cn3c(cccc3=O)[C@H]2N1CC1CCOCC1 | inactive
OC(CNC1CCCCC1)COCCOc1ccc(Br)cc1 (stereo unspecified) | inactive
CC(C)OCCCNC(=O)CN1C(=O)COc2ccc(S(=O)(=O)N3CCCCCC3)cc21 | inactive
O=[N+]([O-])c1ccc(NCCN2CCOCC2)c([N+](=O)[O-])c1 | inactive
COC(=O)c1ccc(COc2cc([N+](=O)[O-])cc3cccnc23)o1 | inactive
C/C(CC(=O)Nc1cc(C)ccn1)=N\NC(=O)c1cccc(C)c1O | inactive
CO[C@H]1CN(C)C(=O)c2ccc(NC(=O)C3CC3)cc2OC[C@@H](C)N(Cc2cccc(F)c2)C[C@H]1C | inactive
COc1ccccc1NC(=O)C(C)OC(=O)CCC1CCCCC1 (stereo unspecified) | inactive
COc1ccccc1N(CC(=O)NCCSCc1ccccc1Cl)S(C)(=O)=O | inactive
O=C(Nc1cccc(C(=O)N2CCOCC2)c1)c1ccc([N+](=O)[O-])cc1 | inactive
Cc1ccc(NC(=O)CCC(=O)NNC(=O)COc2ccccc2)c(C)c1 | inactive
O=C(NC1CC2CCC(C1)N2Cc1ccccc1)c1ccccc1Br (stereo unspecified) | inactive
Cc1ccc(N2C(=O)Cc3ccccc3C2=O)cc1 | inactive
CNC(=O)c1ccccc1NC(=O)C1CC(=O)N(C(C)C)C1 (stereo unspecified) | inactive
CO[C@H]1CN(C)C(=O)c2cc(NC(=O)C3CC3)ccc2OC[C@H](C)N(C(=O)c2ccccc2)C[C@H]1C | inactive
Cc1cc(C)nc(N2CCN(S(=O)(=O)c3ccc(F)cc3)CC2)n1 | inactive
COc1ccc(C(=O)Nc2cc(C(=O)O)cc(C(=O)O)c2)cc1Cl | inactive
CC(=O)N1c2ccc(S(=O)(=O)N(C)CC(=O)NCc3ccc(C)cc3)cc2CC1C (stereo unspecified) | inactive
O=[N+]([O-])c1ccccc1S(=O)(=O)Nc1nc2ccccc2s1 | inactive
